The target of the test is T1, human FFAR1 (GPR40) (Homo sapiens, UniProt O14842).
T1 construct: Flag; expressed in transfected cells; host or cells: HEK293T
In words: NFAT-RE-based reporter gene activity assay (Dual-Glo luciferase) for GPR40 agonistic activity in co-transfected HEK293T cells. The test is classed as cell-based. The settings on record: 4-hour treatment; for Efficacy (%): class symbols. Put shortly:
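Agonism read as NFAT-RE-driven firefly luciferase over Renilla control (Dual-Glo) after 4 h compound exposure, top concentration 1 µM, 10 half-log steps.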
In general terms: Reporter assays use an easily measured gene product as a stand-in for the process of interest.

T1 sequence (O14842 whole entry): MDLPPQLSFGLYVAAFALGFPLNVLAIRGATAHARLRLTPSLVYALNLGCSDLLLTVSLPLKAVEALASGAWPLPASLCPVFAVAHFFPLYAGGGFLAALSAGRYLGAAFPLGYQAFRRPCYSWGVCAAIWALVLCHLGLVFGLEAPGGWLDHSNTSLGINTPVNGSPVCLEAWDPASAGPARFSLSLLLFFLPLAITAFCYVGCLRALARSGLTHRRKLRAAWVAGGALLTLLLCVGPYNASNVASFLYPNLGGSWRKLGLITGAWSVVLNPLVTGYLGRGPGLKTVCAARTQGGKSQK

As for `COc1cccc(N2CCC(c3oc4cc([C@@H](CC(=O)O)C5CC5)ccc4c3C(=O)Nc3cc(C)ccc3Cl)CC2)c1` [Compound 265], the EC50 is no more than 0.01 µM and the “Efficacy (%)” value is “††† (Efficacy (%) > 150)”.

Take `COc1cccc(N2CCC(c3oc4cc([C@@H](CC(=O)O)C5CC5)ccc4c3C(=O)Nc3cc(F)ccc3Cl)CC2)c1` [Compound 266]: the EC50 is less than 0.01 µM and the “Efficacy (%)” value was “††††”.

Regarding `COc1cccc(N2CCC(c3oc4cc([C@@H](CC(=O)O)C5CC5)ccc4c3C(=O)Nc3cc(Cl)ccc3Cl)CC2)c1` [Compound 267], the EC50 is no more than 0.01 µM and the “Efficacy (%)” value is “††† (Efficacy (%) > 150)”.

Take `COc1cccc(N2CCC(c3oc4cc([C@@H](CC(=O)O)C5CC5)ccc4c3C(=O)Nc3cc(OC)ccc3Cl)CC2)c1` [Compound 268]: the EC50 is no more than 0.01 µM and the “Efficacy (%)” value is “†† (150 ≥ Efficacy (%) > 100)”.

As for `COc1cccc(N2CCC(c3oc4cc([C@@H](CC(=O)O)C5CC5)ccc4c3C(=O)Nc3cc(C)ccc3C)CC2)c1` [Compound 269], the EC50 was in the range of 0.01 to 0.1 µM and the “Efficacy (%)” value is listed as “††† (Efficacy (%) > 150)”.

Take `COc1cccc(N2CCC(c3oc4cc([C@@H](CC(=O)O)C5CC5)ccc4c3C(=O)Nc3cc(Cl)ccc3F)CC2)c1` [Compound 270]: the EC50 is 0.01 to 0.1 µM and the “Efficacy (%)” value is listed as “††††”.

`COc1cccc(N2CCC(c3oc4cc([C@@H](CC(=O)O)C5CC5)ccc4c3C(=O)Nc3cc(F)ccc3Br)CC2)c1` [Compound 271]: the EC50 was no more than 0.01 µM and the “Efficacy (%)” value is listed as “††† (Efficacy (%) > 150)”.

For the molecule `COc1cccc(N2CCC(c3oc4cc([C@@H](CC(=O)O)C5CC5)ccc4c3C(=O)Nc3cc(C)ccc3OC)CC2)c1` [Compound 272], the EC50 lay within 0.01 to 0.1 µM and the “Efficacy (%)” value is “††† (Efficacy (%) > 150)”.

`COc1cccc(N2CCC(c3oc4cc([C@@H](CC(=O)O)C5CC5)ccc4c3C(=O)Nc3cc(C)ccc3Br)CC2)c1` [Compound 273]: the EC50 is no more than 0.01 µM and the “Efficacy (%)” value is given as “†† (150 ≥ Efficacy (%) > 100)”.

Turning to `COc1cccc(N2CCC(c3oc4cc([C@@H](CC(=O)O)C5CC5)ccc4c3C(=O)N(C)c3cc([N+](=O)[O-])ccc3Cl)CC2)c1` [Compound 274], the EC50 was 0.1 to 0.5 µM and the “Efficacy (%)” value is listed as “†† (150 ≥ Efficacy (%) > 100)”.

Turning to `COc1cccc(N2CCC(c3oc4cc([C@@H](CC(=O)O)C5CC5)ccc4c3C(=O)Nc3cc(C(F)(F)F)ccc3Cl)CC2)c1` [Compound 275], the EC50 fell in the range of 0.01 to 0.1 µM and the “Efficacy (%)” value is “††† (Efficacy (%) > 150)”.

For the molecule `COc1cccc(N2CCC(c3oc4cc([C@@H](CC(=O)O)C5CC5)ccc4c3C(=O)Nc3cc([N+](=O)[O-])ccc3Cl)CC2)c1` [Compound 276], the concentration giving a half-maximal response (EC50) was 0.01 to 0.1 µM and the “Efficacy (%)” value is given as “†† (150 ≥ Efficacy (%) > 100)”.

`COc1cccc(N2CCC(c3oc4cc([C@@H](CC(=O)O)C5CC5)ccc4c3C(=O)Nc3cc(OC(F)(F)F)ccc3Cl)CC2)c1` [Compound 277]: the EC50 is greater than 0.5 µM and the “Efficacy (%)” value was “††††”.

For the molecule `CCc1ccc(Cl)c(NC(=O)c2c(C3CCN(c4cccc(OC)c4)CC3)oc3cc([C@@H](CC(=O)O)C4CC4)ccc23)c1` [Compound 278], the 50% effective concentration (EC50) was less than 0.01 µM and the “Efficacy (%)” value is “††††”.

For `COc1cccc(N2CCC(c3oc4cc([C@@H](CC(=O)O)C5CC5)ccc4c3C(=O)Nc3cc(C4CC4)ccc3Cl)CC2)c1` [Compound 279], the EC50 was greater than 0.5 µM and the “Efficacy (%)” value was “†† (150 ≥ Efficacy (%) > 100)”.

As for `COc1cccc(N2CCC(c3oc4cc([C@@H](CC(=O)O)C5CC5)ccc4c3C(=O)Nc3cc(-c4ccccc4)ccc3Cl)CC2)c1` [Compound 280], the EC50 is 0.1 to 0.5 µM and the “Efficacy (%)” value is “†† (150 ≥ Efficacy (%) > 100)”.

For `COc1cccc(N2CCC(c3oc4cc([C@@H](CC(=O)O)C5CC5)ccc4c3C(=O)N(C)c3cc(C(F)(F)F)ccc3Cl)CC2)c1` [Compound 281], the EC50 lay in the range of 0.1 to 0.5 µM and the “Efficacy (%)” value is “†† (150 ≥ Efficacy (%) > 100)”.

For the molecule `COc1cccc(N2CCC(c3oc4cc([C@@H](CC(=O)O)C5CC5)ccc4c3C(=O)Nc3cc(C#N)ccc3Cl)CC2)c1` [Compound 282], the EC50 was 0.01 to 0.1 µM and the “Efficacy (%)” value is recorded as “†† (150 ≥ Efficacy (%) > 100)”.

For the molecule `COc1cccc(N2CCC(c3oc4cc([C@@H](CC(=O)O)C5CC5)ccc4c3C(=O)Nc3cc(C(C)=O)ccc3Cl)CC2)c1` [Compound 283], the EC50 lay within 0.01 to 0.1 µM and the “Efficacy (%)” value is recorded as “††† (Efficacy (%) > 150)”.

With `COc1cccc(N2CCC(c3oc4cc([C@@H](CC(=O)O)C5CC5)ccc4c3C(=O)Nc3cc(N4CCCCC4)ccc3Cl)CC2)c1` [Compound 284], the EC50 was no more than 0.01 µM and the “Efficacy (%)” value was “†† (150 ≥ Efficacy (%) > 100)”.

Turning to `COc1cccc(N2CCC(c3oc4cc([C@@H](CC(=O)O)C5CC5)ccc4c3C(=O)Nc3cc(N4CCOCC4)ccc3Cl)CC2)c1` [Compound 285], the EC50 was no more than 0.01 µM and the “Efficacy (%)” value was “†† (150 ≥ Efficacy (%) > 100)”.

Turning to `COc1cccc(N2CCC(c3oc4cc([C@@H](CC(=O)O)C5CC5)ccc4c3C(=O)Nc3cc(NC(C)=O)ccc3Cl)CC2)c1` [Compound 286], the concentration for a half-maximal effect (EC50) lay within 0.1 to 0.5 µM and the “Efficacy (%)” value is given as “†† (150 ≥ Efficacy (%) > 100)”.

Consider `COc1cccc(N2CCC(c3oc4cc(C(CC(=O)O)C5CC5)ccc4c3C(=O)Nc3c(F)cc(F)cc3F)CC2)c1` (centres unmarked) [Compound 288], for which the EC50 fell in the range of 0.1 to 0.5 µM and the “Efficacy (%)” value is “†† (150 ≥ Efficacy (%) > 100)”.

In the case of `COc1cccc(N2CCC(c3oc4cc(C(CC(=O)O)C5CC5)ccc4c3C(=O)Nc3nccs3)CC2)c1` (centres unmarked) [Compound 290], the EC50 was 0.1 to 0.5 µM and the “Efficacy (%)” value is given as “†† (150 ≥ Efficacy (%) > 100)”.

For the molecule `COc1cccc(N2CCC(c3oc4cc(C(CC(=O)O)C5CC5)ccc4c3C(=O)Nc3ncns3)CC2)c1` (centres unmarked) [Compound 293], the EC50 was in the range of 0.1 to 0.5 µM and the “Efficacy (%)” value was “†† (150 ≥ Efficacy (%) > 100)”.

As to `COc1cccc(N2CCC(c3oc4cc(C(CC(=O)O)C5CC5)ccc4c3C(=O)Nc3noc4ccccc34)CC2)c1` (centres unmarked) [Compound 296], the EC50 is 0.1 to 0.5 µM and the “Efficacy (%)” value was “††† (Efficacy (%) > 150)”.

For the molecule `COc1cccc(N2CCC(c3oc4cc(C(CC(=O)O)C5CC5)ccc4c3C(=O)Nc3nc4ccccc4s3)CC2)c1` (centres unmarked) [Compound 297], the EC50 lay in the range of 0.1 to 0.5 µM and the “Efficacy (%)” value was “†† (150 ≥ Efficacy (%) > 100)”.

Turning to `COc1cccc(N2CCC(c3oc4cc(C(CC(=O)O)C5CC5)ccc4c3C(=O)Nc3nc(C(C)(C)C)cs3)CC2)c1` (centres unmarked) [Compound 298], the EC50 lay within 0.1 to 0.5 µM and the “Efficacy (%)” value is on record as “†† (150 ≥ Efficacy (%) > 100)”.

As for `COc1cccc(N2CCC(c3oc4cc(C(CC(=O)O)C5CC5)ccc4c3C(=O)Nc3ncc(C(C)(C)C)s3)CC2)c1` (centres unmarked) [Compound 299], the EC50 lay in the range of 0.1 to 0.5 µM and the “Efficacy (%)” value is “†† (150 ≥ Efficacy (%) > 100)”.

`COc1cccc(N2CCC(c3oc4cc(C(CC(=O)O)C5CC5)ccc4c3C(=O)Nc3cc(C(C)(C)C)on3)CC2)c1` (centres unmarked) [Compound 300]: the EC50 fell in the range of 0.1 to 0.5 µM and the “Efficacy (%)” value was “†† (150 ≥ Efficacy (%) > 100)”.

Turning to `COc1cccc(N2CCC(c3oc4cc(C(CC(=O)O)C5CC5)ccc4c3C(=O)Nc3cc(C(C)(C)C)no3)CC2)c1` (centres unmarked) [Compound 301], the EC50 lay within 0.1 to 0.5 µM and the “Efficacy (%)” value is given as “†† (150 ≥ Efficacy (%) > 100)”.

The term EC50 denotes the concentration giving half of the maximal effect. The low end stands for an effect from little substance, the high end for a need for much substance.

Values taken from patent EP4682145A1, “BENZOHETEROCYCLIC COMPOUND, AND PREPARATION METHOD THEREFOR AND USE THEREOF” (Cascade Pharmaceuticals, Inc., priority 2023, dated 2024).
